pIC50: −log10 of the molar value. Activity calls are given as the source filed them. No cut-off for these calls is given here.
Key:
[1] = molecular target: T1, Cysteinyl leukotriene receptor 1 (Cavia porcellus) (UniProt Q2NNR5); assay: In vitro antagonistic activity against LTD4 in guinea pig ileum at 240 nM; type: functional, tissue-based
T1 sequence (whole entry): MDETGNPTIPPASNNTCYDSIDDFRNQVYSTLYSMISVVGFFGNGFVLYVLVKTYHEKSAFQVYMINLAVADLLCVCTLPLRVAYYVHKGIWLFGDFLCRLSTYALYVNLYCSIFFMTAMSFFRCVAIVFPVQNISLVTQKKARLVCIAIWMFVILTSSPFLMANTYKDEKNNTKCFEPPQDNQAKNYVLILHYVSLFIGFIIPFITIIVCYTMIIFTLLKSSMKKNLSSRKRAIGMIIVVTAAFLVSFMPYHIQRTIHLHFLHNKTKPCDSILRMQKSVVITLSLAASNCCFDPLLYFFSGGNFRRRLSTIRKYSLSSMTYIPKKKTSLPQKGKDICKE

[2] = molecular target: Cysteinyl leukotriene receptor 1 (Cavia porcellus); assay: In vitro for antagonistic activity against LTD4 receptor in guinea pig ileum
Cavia porcellus [3] = assay: Compound was evaluated in vivo for LTD4-induced bronchospasm in guinea pig; type: functional
[4] = molecular target: T2, Cysteinyl leukotriene receptor 1 (Cavia porcellus, UniProt Q2NNR5); assay: In vitro inhibition of [3H]LTD4 binding to guinea pig lung membrane; type: tissue-based
T2 sequence (Q2NNR5 whole entry): T1 sequence (whole entry)

[5] = molecular target: T1, Cysteinyl leukotriene receptor 1 (Cavia porcellus); assay: In vitro antagonistic activity against LTD4 in guinea pig ileum at 200 nM; type: functional, tissue-based
Cavia porcellus [6] = assay: Compound was evaluated in vivo for LTD4-induced bronchospasm in guinea pig; IA means inactive at 10 mg/kg p.o.; type: functional, organism-based; parameters: dose 10 mg/kg

Compound	IC50 [2]	other results
CCC(CC)(CC(=O)Nc1cccc(OCc2ccc3ccc(O)cc3n2)c1)C(=O)O		inhibition [1]: 0%
CCC(CC)(CC(=O)Nc1cccc(OCc2ccc3ccc(C(C)=O)cc3n2)c1)C(=O)O	2500 nM	
CC(C)(CC(=O)Nc1cccc(OCc2ccc3ccc(F)cc3n2)c1)C(=O)O	1.4 nM	
CCC(CC)(CC(=O)Nc1cccc(/C=C/c2ccc3ccc(F)cc3n2)c1)C(=O)O	0.4 nM	
CCC(CC)(CC(=O)Nc1cccc(OCc2ccc3ccc(Br)cc3n2)c1)C(=O)O	4 nM	
CCC(CC)(CC(=O)Nc1cccc(OCc2ccc3ccc(C)cc3n2)c1)C(=O)O	11 nM	
CCC(CC)(CC(=O)Nc1cccc(SCc2ccc3ccc(F)cc3n2)c1)C(=O)O	4 nM	
CCC(CC)(CC(=O)Nc1cccc(OCc2ccc3cc(C)ccc3n2)c1)C(=O)O	24 nM	
CCC(CC)(CC(=O)Nc1cccc(OCc2ccc3cc(F)c(F)cc3n2)c1)C(=O)O	0.5 nM	
COc1cc(C(=O)NS(=O)(=O)c2ccccc2C)ccc1Cc1cn(C)c2ccc(NC(=O)OC3CCCC3)cc12 [ZAFIRLUKAST]		ED50 (Cavia porcellus [3]): 0.55 mg/kg
CCC(CC)(CC(=O)Nc1cccc(OCc2ccc3cccc(F)c3n2)c1)C(=O)O	6 nM	
CCC(CC)(CC(=O)Nc1cccc(COc2ccc3ccccc3n2)c1)C(=O)O	3900 nM	
CCC(CC)(CC(=O)Nc1cccc(OCc2ccc3ccc(F)cc3n2)c1)C(=O)O	0.2 nM	pIC50 [4]: 8.22; ED50 (Cavia porcellus [3]): 0.07 mg/kg
CCC(CC)(CC(=O)Nc1cccc(OCc2ccc3c(F)cccc3n2)c1)C(=O)O	0.3 nM	
O=C(CC1(C(=O)O)CCCCC1)Nc1cccc(OCc2ccc3ccc(F)cc3n2)c1	7.3 nM	
CCCC(CCC)(CC(=O)Nc1cccc(OCc2ccc3ccc(F)cc3n2)c1)C(=O)O	2 nM	
O=C(O)CCC(=O)Nc1cccc(OCc2ccc3ccc(F)cc3n2)c1	200 nM	
O=C(CC1(C(=O)O)CCCC1)Nc1cccc(OCc2ccc3ccc(F)cc3n2)c1	10 nM	
CCC(CC)(CC(=O)Nc1cccc(OCc2ccc3ccc(OCc4ccccc4)cc3n2)c1)C(=O)O		inhibition [5]: 0%
CCC(CC)(CC(=O)O)C(=O)Nc1cccc(OCc2ccc3ccc(F)cc3n2)c1	140 nM	
CCC(CC)(CC(=O)Nc1cccc(OCc2ccc3cc(F)ccc3n2)c1)C(=O)O	2 nM	
CCC(CC)(CC(=O)Nc1cccc(OCc2ccc3ccc(OC)cc3n2)c1)C(=O)O	80 nM	
CCC(C)(CC(=O)Nc1cccc(OCc2ccc3ccc(F)cc3n2)c1)C(=O)O (configuration not stated)	6.4 nM	
CCC(CC)(CC(=O)Nc1cccc(OCc2ccc3ccc(Cl)cc3n2)c1)C(=O)O	0.8 nM	pIC50 [4]: 7.19; ED50 (Cavia porcellus [3]): 0.11 mg/kg
CCC(CC)(CC(=O)Nc1cccc(OCc2ccc3cc(C)c(C)cc3n2)c1)C(=O)O	11 nM	
CCC(CC)(CC(=O)Nc1cccc(OCc2ccc3ccc(OC(F)(F)F)cc3n2)c1)C(=O)O	9 nM	
CCCCC(CCCC)(CC(=O)Nc1cccc(OCc2ccc3ccc(F)cc3n2)c1)C(=O)O	1 nM	
CCC(CC)(CC(=O)Nc1cccc(OCc2ccc3cc4c(cc3n2)CCC4)c1)C(=O)O	9 nM	
CCC(CC)(CC(=O)Nc1cccc(OCc2ccc3ccc(C(F)(F)F)cc3n2)c1)C(=O)O	3 nM	ED50 (Cavia porcellus [6]): inactive
CCC(CC)(CC(=O)Nc1cccc(OCc2ccc3ccccc3n2)c1)C(=O)O	0.9 nM	pIC50 [4]: 8.05; ED50 (Cavia porcellus [3]): 0.42 mg/kg
